This passage reports Kd, EC50 and IC50 results from patent US20200385371A1 (Propellon Therapeutics Inc., priority 2017, published 2020).

SMILES strings stand for the structures.

The target of assay [1] is T1, WDR5 (Homo sapiens, UniProt P61964). Nature of the assay: Surface Plasmon Resonance (SPR) assay. The conditions noted are these: read-out: SPR Kd. The format is binding. More on the design: Full length WDR5 with an N-terminal His tag and C-terminal AviTag; His tag (N); made in house; host or cells: E. coli. A digest of the protocol:
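Full-length biotinylated WDR5 (N-His, C-AviTag, E. coli) captured (~3000 RU) on streptavidin SA chip; Biacore T200. HBS-EP pH 7.4 plus 5% DMSO running buffer, 40 μl/min.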

The next assay has as its system MV4-11 cells. Nature of the assay: Cell proliferation assay (ATPlite). The format is cell-based. To be noted: Homo sapiens, 120 h; MV4-11 cells, five days; read-out: GI MV411 EC50. Put shortly:
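Cells seeded at 1,000/well in Alpha-MEM with 10% FBS, treated with compound over a 10-point range (top 10 μM) or DMSO. Grown five days at 37° C, 5% CO2; viability by ATPlite luminescence.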

The target in assay [2] is T1, WDR5. Nature of the assay: Fluorescence Polarization (FP) binding assay. A digest of the protocol: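 Displacement of fluorescein-labelled H3 (1-15) (30 nM, with 0.3 μM WDR5) or 9-Ala-FAM (20 nM, with 0.05 μM WDR5) in 80 mM sodium phosphate pH 6.5, 20 mM KCl, 0.008% Triton X-100. FP read at 485/528 nm (H3) or 480/540 nm (9-Ala-FAM); Kdisp from hyperbolic fit, mean of quadruplicates.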

The term Kd denotes a measure of binding affinity in units of concentration. For orientation: EC50 means the midpoint of the concentration-response curve. As usually defined, the IC50 is the point on the concentration scale where inhibition reaches its midpoint.

Regarding `C[C@@H]1CN(c2ncc(-c3c(F)cc(N4CCN(C)[C@@H](C)C4)c(NC(=O)c4cn(C)c(=O)cc4C(F)F)c3F)cn2)C[C@@H](C)O1` [Example 162, 4-(Difluoromethyl)-N-(3-(2-((2R,6R)-2,6-dimethylmorpholino)pyrimidin-5-yl)-6-((S)-3,4-dimethylpiperazin-1-yl)-2,4-difluorophenyl)-1-methyl-6-oxo-1,6-dihydropyridine-3-carboxamide], the dissociation constant (Kd) on WDR5 [1] was 1.25 nM. In the assay on MV4-11 cells, the EC50 was found to be 210 nM. The concentration for half-maximal inhibition (IC50) at WDR5 [2] came out at 14.1 nM.

For the molecule `C[C@H]1CN(c2cc(F)c(C3=CCCN(C(=O)OC4(C)CCC4)C3)c(F)c2NC(=O)c2c[nH]c(=O)cc2C(F)F)CCN1C` [Example 94, 1-Methylcyclobutyl (S)-5-(3-(4-(difluoromethyl)-6-oxo-1,6-dihydropyridine-3-carboxamido)-4-(3,4-dimethylpiperazin-1-yl)-2,6-difluorophenyl)-3,6-dihydropyridine-1(2H)-carboxylate], the dissociation constant (Kd) on WDR5 [1] was determined as 2.17 nM. Further, the EC50 with MV4-11 cells stood at 93.9 nM. The half-maximal inhibitory concentration (IC50) at WDR5 [2] came out at 17.4 nM.

Consider `C[C@@H]1CN(c2ncc(-c3c(F)cc(N4CCN(C)[C@@H](C)C4)c(NC(=O)c4c[nH]c(=O)cc4C(F)(F)F)c3F)cn2)CCO1` [Example 127, N-(6-((S)-3,4-dimethylpiperazin-1-yl)-2,4-difluoro-3-(2-((R)-2-methylmorpholino)pyrimidin-5-yl)phenyl)-6-oxo-4-(trifluoromethyl)-1,6-dihydropyridine-3-carboxamide], for which, at WDR5 [1], the Kd turned out to be 0.69 nM. In the assay with MV4-11 cells, the 50% effective concentration (EC50) was 10.2 nM. For the same molecule, the IC50 on WDR5 [2] was 11.7 nM.

Consider `COc1cc(N2CCC=C(c3c(F)cc(N4CCN(C)[C@@H](C)C4)c(NC(=O)c4c[nH]c(=O)cc4C(F)F)c3F)C2)ncn1` [Example 79, (S)-4-(difluoromethyl)-N-(6-(3,4-dimethylpiperazin-1-yl)-2,4-difluoro-3-(1-(6-methoxypyrimidin-4-yl)-1,2,5,6-tetrahydropyridin-3-yl)phenyl)-6-oxo-1,6-dihydropyridine-3-carboxamide], for which, at WDR5 [1], the dissociation constant Kd was found to be 1.67 nM. Further, the concentration for a half-maximal effect (EC50) with MV4-11 cells was 223 nM. The 50% inhibitory concentration (IC50) at WDR5 [2] was 13.6 nM.

For the molecule `C[C@H]1CN(c2cc(F)c(C3=CCN(c4ncc(C#N)s4)C3)c(F)c2NC(=O)c2c[nH]c(=O)cc2C(F)F)CCN1C` [Example 95, (S)—N-(3-(1-(5-cyanothiazol-2-yl)-2,5-dihydro-1H-pyrrol-3-yl)-6-(3,4-dimethylpiperazin-1-yl)-2,4-difluorophenyl)-4-(difluoromethyl)-6-oxo-1,6-dihydropyridine-3-carboxamide], at WDR5 [1], the Kd is 0.79 nM. Moreover, in the assay with MV4-11 cells, the EC50 was found to be 96.4 nM. For the same molecule, the half-maximal inhibitory concentration (IC50) at WDR5 [2] stood at 13.8 nM.

Regarding `C[C@@H]1CN(c2ccc(-c3c(F)cc(N4CCN(C)[C@@H](C)C4)c(NC(=O)c4c[nH]c(=O)cc4C(F)F)c3F)cn2)CCO1` [Example 181, 4-(Difluoromethyl)-N-(6-((S)-3,4-dimethylpiperazin-1-yl)-2,4-difluoro-3-(6-((R)-2-methylmorpholino)pyridin-3-yl)phenyl)-6-oxo-1,6-dihydropyridine-3-carboxamide], on WDR5 [1], the equilibrium dissociation constant (Kd) came out at 0.64 nM. Also, in the assay with MV4-11 cells, the EC50 was found to be 29.9 nM. The IC50 at WDR5 [2] amounted to 24.5 nM.

For the molecule `C[C@@H]1CN(c2nccc(-c3c(F)cc(N4CCN(C)[C@@H](C)C4)c(NC(=O)c4c[nH]c(=O)cc4C(F)F)c3F)n2)C[C@H](C)O1` [Example 59, 4-(Difluoromethyl)-N-(3-(2-((2S,6R)-2,6-dimethylmorpholino)pyrimidin-4-yl)-6-((S)-3,4-dimethylpiperazin-1-yl)-2,4-difluorophenyl)-6-oxo-1,6-dihydropyridine-3-carboxamide], the equilibrium dissociation constant (Kd) on WDR5 [1] turned out to be 1.14 nM. For the same molecule, the concentration for a half-maximal effect (EC50) in the assay with MV4-11 cells amounted to 56.6 nM. Moreover, the half-maximal inhibitory concentration (IC50) at WDR5 [2] amounted to 14.4 nM.

`CC(C)OC(=O)N1CCC=C(c2c(F)cc(N3CCN(C)[C@@H](C)C3)c(NC(=O)c3c[nH]c(=O)cc3C(F)(F)F)c2F)C1` [Example 38, Isopropyl (S)-5-(4-(3,4-dimethylpiperazin-1-yl)-2,6-difluoro-3-(6-oxo-4-(trifluoromethyl)-1,6-dihydropyridine-3-carboxamido)phenyl)-3,6-dihydropyridine-1(2H)-carboxylate]: at WDR5 [1], the equilibrium dissociation constant (Kd) is 16.4 nM. Also, the EC50 in the assay with MV4-11 cells was found to be 185 nM. Also, the IC50 on WDR5 [2] was found to be 17.4 nM.

Consider `C[C@@H]1CN(c2cc(F)c(C3=CCN(C(=O)OC4(C)CCC4)C3)c(F)c2NC(=O)c2c[nH]c(=O)cc2C(F)(F)F)C[C@H](C)N1C` [Example 141, 1-Methylcyclobutyl 3-(2,6-difluoro-3-(6-oxo-4-(trifluoromethyl)-1,6-dihydropyridine-3-carboxamido)-4-((3S,5R)-3,4,5-trimethylpiperazin-1-yl)phenyl)-2,5-dihydro-1H-pyrrole-1-carboxylate], for which the Kd at WDR5 [1] is 0.96 nM. In the assay with MV4-11 cells, the EC50 stood at 31.2 nM. At WDR5 [2], the IC50 worked out at 10.1 nM.

Regarding `C[C@H]1CN(c2cc(F)c(C3=CCN(C(=O)OC4(C)CCC4)CC3)c(F)c2NC(=O)c2c[nH]c(=O)cc2C(F)F)CCN1C` [Example 92, 1-Methylcyclobutyl(S)-4-(3-(4-(difluoromethyl)-6-oxo-1,6-dihydropyridine-3-carboxamido)-4-(3,4-dimethylpiperazin-1-yl)-2,6-difluorophenyl)-3,6-dihydropyridine-1(2H)-carboxylate], the dissociation constant (Kd) at WDR5 [1] was determined as 2.79 nM. The EC50 with MV4-11 cells turned out to be 22.8 nM. In addition, the IC50 at WDR5 [2] was 15.6 nM.

For `C[C@@H]1CN(c2ccc(-c3c(F)cc(N4C[C@@H](C)N(C)[C@@H](C)C4)c(NC(=O)c4c[nH]c(=O)cc4C(F)(F)F)c3F)cn2)CCO1` [Example 168, N-(2,4-difluoro-3-(6-((R)-2-methylmorpholino)pyridin-3-yl)-6-((3S,5R)-3,4,5-trimethylpiperazin-1-yl)phenyl)-6-oxo-4-(trifluoromethyl)-1,6-dihydropyridine-3-carboxamide], the Kd on WDR5 [1] was found to be 0.87 nM. Besides, the EC50 in the assay on MV4-11 cells came to 36.8 nM. The half-inhibitory concentration (IC50) on WDR5 [2] stood at 16.6 nM.

Turning to `C[C@@H]1CN(c2ccc(-c3c(F)cc(N4CCN(C)[C@@H](C)C4)c(NC(=O)c4ccc(F)cc4C(F)(F)F)c3F)cn2)CCO1` [Example 172, N-(6-((S)-3,4-dimethylpiperazin-1-yl)-2,4-difluoro-3-(6-((R)-2-methylmorpholino)pyridin-3-yl)phenyl)-4-fluoro-2-(trifluoromethyl)benzamide], the dissociation constant Kd at WDR5 [1] is 1.02 nM. Besides, in the assay on MV4-11 cells, the EC50 is 124 nM. The IC50 at WDR5 [2] is 18.9 nM.

With `CC(C)OC(=O)N1CCC=C(c2c(F)cc(N3C[C@@H](C)N(C)[C@@H](C)C3)c(NC(=O)c3c[nH]c(=O)cc3C(F)(F)F)c2F)C1` [Example 13, Isopropyl 5-(2,6-difluoro-3-(6-oxo-4-(trifluoromethyl)-1,6-dihydropyridine-3-carboxamido)-4-((3S,5R)-3,4,5-trimethylpiperazin-1-yl)phenyl)-3,6-dihydropyridine-1(2H)-carboxylate], the dissociation constant (Kd) at WDR5 [1] was determined as 1.91 nM. For the same molecule, the 50% effective concentration (EC50) with MV4-11 cells stood at 173 nM. Also, the IC50 at WDR5 [2] was 14.4 nM.

Consider `COc1cc(N2CC=C(c3c(F)cc(N4CCN(C)[C@@H](C)C4)c(NC(=O)c4c[nH]c(=O)cc4C(F)(F)F)c3F)C2)ncn1` [Example 75, (S)—N-(6-(3,4-dimethylpiperazin-1-yl)-2,4-difluoro-3-(1-(6-methoxypyrimidin-4-yl)-2,5-dihydro-1H-pyrrol-3-yl)phenyl)-6-oxo-4-(trifluoromethyl)-1,6-dihydropyridine-3-carboxamide], for which, at WDR5 [1], the equilibrium dissociation constant (Kd) turned out to be 1.8 nM. In addition, the EC50 in the assay with MV4-11 cells came out at 35.1 nM. Further, the IC50 on WDR5 [2] worked out at 18.5 nM.

As for `C[C@@H]1CN(c2cc(F)c(-c3cnc(N4CCOCC4)nc3)c(F)c2NC(=O)c2c[nH]c(=O)cc2C(F)F)C[C@H](C)N1C` [Example 41, N-(2,4-difluoro-3-(2-morpholinopyrimidin-5-yl)-6-((3S,5R)-3,4,5-trimethylpiperazin-1-yl)phenyl)-4-(difluoromethyl)-6-oxo-1,6-dihydropyridine-3-carboxamide], the Kd on WDR5 [1] stood at 0.84 nM. For the same molecule, the 50% effective concentration (EC50) with MV4-11 cells turned out to be 48.8 nM. For the same molecule, the IC50 at WDR5 [2] stood at 7.1 nM.

For `C[C@H]1CN(c2ncc(-c3c(F)cc(N4CCN(C)[C@@H](C)C4)c(NC(=O)c4c[nH]c(=O)cc4C(F)F)c3F)cn2)C[C@H](C)O1` [Example 119, 4-(Difluoromethyl)-N-(3-(2-((2S,6S)-2,6-dimethylmorpholino)pyrimidin-5-yl)-6-((S)-3,4-dimethylpiperazin-1-yl)-2,4-difluorophenyl)-6-oxo-1,6-dihydropyridine-3-carboxamide], at WDR5 [1], the dissociation constant (Kd) worked out at 0.9 nM. Further, in the assay with MV4-11 cells, the half-maximal effective concentration (EC50) was found to be 20.4 nM. In addition, the concentration for half-maximal inhibition (IC50) at WDR5 [2] came out at 11.7 nM.

With `C[C@H]1CN(c2cc(F)c(C3=CCN(c4ncc(C#N)s4)CC3)c(F)c2NC(=O)c2c[nH]c(=O)cc2C(F)(F)F)CCN1C` [Example 98, (S)—N-(3-(1-(5-cyanothiazol-2-yl)-1,2,3,6-tetrahydropyridin-4-yl)-6-(3,4-dimethylpiperazin-1-yl)-2,4-difluorophenyl)-6-oxo-4-(trifluoromethyl)-1,6-dihydropyridine-3-carboxamide], the equilibrium dissociation constant (Kd) on WDR5 [1] stood at 0.77 nM. Further, the EC50 with MV4-11 cells was found to be 97.7 nM. Also, on WDR5 [2], the 50% inhibitory concentration (IC50) came out at 13.1 nM.
